Laboratory results: paper PMC5912893 (Journal of medicinal chemistry, 2018)
pIC50: −log10 of the molar value.

Experiments:
A375, M14, and RPMI7951 = experiment: Cytotoxic activity against three human malignant melanoma cell lines; details: read-out: IC50 (approximate, three melanoma cell lines)
WM164 melanoma cells = experiment: Confocal immunofluorescent microscopy of microtubule networks; type: cell-based, human; details: 100 nM, 18 h
purified tubulin = purified tubulin (Sus scrofa, UniProt P02550+P02554); experiment: Cell-free microtubule polymerization assay; type: biochemical, porcine; details: tubulin 3.33 mg/mL, absorbance 340 nm, 37 °C, 50 min
A375 xenograft = experiment: A375 melanoma xenograft model in nude mice; type: in vivo; details: for apoptosis in tumors (cleaved caspase 3 IHC): IHC staining
PC-3/TxR xenograft = experiment: Paclitaxel resistant PC-3/TxR prostate cancer xenograft model in nude mice; type: in vivo; details: for effect on tumor growth (in words): vs vehicle
PC-3 xenograft = details: nude mice
RPMI7951 = experiment: Wound healing assay, RPMI7951 cells; type: cell-based, human; details: 18 h, untreated control 71.8%

Chain of purified tubulin (P02554 whole entry): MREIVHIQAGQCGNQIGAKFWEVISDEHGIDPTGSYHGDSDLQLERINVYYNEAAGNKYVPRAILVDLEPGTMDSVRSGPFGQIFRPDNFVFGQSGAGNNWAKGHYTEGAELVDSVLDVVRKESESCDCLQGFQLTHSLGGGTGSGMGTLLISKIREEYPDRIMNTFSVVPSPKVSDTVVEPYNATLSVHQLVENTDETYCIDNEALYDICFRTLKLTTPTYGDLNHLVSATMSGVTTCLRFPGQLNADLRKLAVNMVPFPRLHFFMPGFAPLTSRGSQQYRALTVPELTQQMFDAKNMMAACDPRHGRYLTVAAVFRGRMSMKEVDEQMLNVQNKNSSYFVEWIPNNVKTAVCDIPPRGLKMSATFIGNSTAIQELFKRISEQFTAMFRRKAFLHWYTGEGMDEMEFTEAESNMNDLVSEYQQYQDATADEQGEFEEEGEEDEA
Chain of purified tubulin (P02550 whole entry): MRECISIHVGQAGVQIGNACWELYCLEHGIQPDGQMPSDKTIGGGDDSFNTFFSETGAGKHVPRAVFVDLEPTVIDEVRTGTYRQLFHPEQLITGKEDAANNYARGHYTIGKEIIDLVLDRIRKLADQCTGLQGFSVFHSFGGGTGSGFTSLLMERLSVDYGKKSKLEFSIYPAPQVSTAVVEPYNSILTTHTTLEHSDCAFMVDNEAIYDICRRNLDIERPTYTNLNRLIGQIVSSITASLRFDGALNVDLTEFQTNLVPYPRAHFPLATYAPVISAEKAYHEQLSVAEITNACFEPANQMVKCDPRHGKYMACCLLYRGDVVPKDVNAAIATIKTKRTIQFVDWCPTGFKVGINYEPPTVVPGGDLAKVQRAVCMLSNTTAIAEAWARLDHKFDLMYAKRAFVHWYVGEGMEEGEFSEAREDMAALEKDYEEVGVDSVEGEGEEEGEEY

| Structure (SMILES) | pIC50 (A375, M14, and RPMI7951) | effect on tubulin polymerization (purified tubulin) | microvessel density in tumors (CD31 staining) (A375 xenograft) | apoptosis in tumors (cleaved caspase 3 IHC) (A375 xenograft) | further results |
| --- | --- | --- | --- | --- | --- |
| COc1ccc(N(C)c2nc(Cl)nc3ncccc23)cc1OC [21a, 2-Chloro-N-(3,4-dimethoxyphenyl)-N-methylpyrido[2,3-d]-pyrimidin-4-amine] | 7.35 | – | – | – | – |
| CC(=O)O[C@@]12CO[C@@H]1C[C@H](O)[C@@]1(C)C(=O)[C@H](O)C3=C(C)[C@@H](OC(=O)[C@H](O)[C@@H](NC(=O)OC(C)(C)C)c4ccccc4)C[C@@](O)([C@@H](OC(=O)c4ccccc4)[C@H]21)C3(C)C [docetaxel, reference compound] | – | – | – | – | effect on microtubule networks (WM164 melanoma cells): dense tubulin accretion, representative of aggressive polymerization |
| COc1ccc2c(c1)C(O)CCN2c1nc(Cl)nc2ncccc12 (stereo not drawn) [compound 17, 1-(2-Chloropyrido[2,3-d]pyrimidin-4-yl)-6-methoxy-1,2,3,4-tetrahydroquinolin-4-ol] | ~7.52 | – | – | – | – |
| COc1ccc2c(c1)CCCN2c1nc(Cl)nc2ccoc12 [6a, 2-Chloro-4-(6-methoxy-3,4-dihydroquinolin-1(2H)-yl)furo[3,2-d]pyrimidine] | ~8.52 | effectively inhibited tubulin polymerization in a dose-dependent manner | less microvessel density | increase in the number of cells undergoing apoptosis | – |
| CC(=O)O[C@H]1C(=O)[C@@]2(C)[C@H]([C@H](OC(=O)c3ccccc3)[C@]3(O)C[C@H](OC(=O)[C@H](O)[C@@H](NC(=O)c4ccccc4)c4ccccc4)C(C)=C1C3(C)C)[C@]1(OC(C)=O)CO[C@@H]1C[C@@H]2O [paclitaxel, reference compound] | – | greatest polymerization | less microvessel density | increase in the number of cells undergoing apoptosis | mouse body weight (PC-3/TxR xenograft): began to drop considerably after 2 weeks of treatment; effect on tumor growth (in words) (PC-3/TxR xenograft): no difference in tumor growth; susceptibility of nonresistant tumors to treatment (PC-3 xenograft): highly susceptible |
| COc1cc2c(c(OC)c1OC)-c1ccc(OC)c(=O)cc1[C@@H](NC(C)=O)CC2 [colchicine] | – | – | – | – | wound closure, RPMI7951, 5 nM (RPMI7951): a significant decrease in migration was not observed |
| COc1ccc2c(c1)CCCN2c1nc(Cl)nc2ncccc12 [4a, 2-Chloro-4-(6-methoxy-3,4-dihydroquinolin-1(2H)-yl)pyrido-[2,3-d]pyrimidine] | ~8.22 | effectively inhibited tubulin polymerization in a dose-dependent manner | less microvessel density | increase in the number of cells undergoing apoptosis | effect on tumor growth (in words) (PC-3/TxR xenograft): significant decrease in tumor volume; effect on microtubule networks (WM164 melanoma cells): causes fragmentation of the microtubules, decreases polymeric tubulin filaments, and increases cytoplasmic soluble tubulin |
| COc1ccc2c(c1)OCCN2c1nc(Cl)nc2ncccc12 [compound 19, 4-(2-Chloropyrido[2,3-d]pyrimidin-4-yl)-7-methoxy-3,4-dihydro-2H-benzo[b][1,4]oxazine] | 6.53 | – | – | – | – |
